Tests used:
gastric mucosa [1] = assay: Effect on gastric mucosa (2) (oral administration); format: in vivo, rat (Sprague-Dawley strain); details: rats, 4 hours
Experimental: 4 Hours after the administration, the rat was sacrificed with ether, and its stomach was removed. The stomach was treated with 5% formalin for 3 minutes, and gastric mucosa was observed under a stereoscopic microscope. When gastric lesion in the mucosa was found, the number of the lesion in the mucosa was counted.

[2] = Stability on storage at 50° C. and humidity of 70% for 1 month; format: physicochemical; details: among the compounds (I)
Experimental: For example, when the compounds (I) are kept at temperature of 50° C., and humidity of 70% for 1 month, no substantial change with respect to their appearances and values of quantitative analysis was observed, and no decomposition product was detected by thin-layer chromatography. Thus compounds (I) are prepared for administration in the form of pharmaceutical compositions according to conventional methods in the field of the art, and it is possible to prepare a pharmaceutical composition which comprises a therapeutically effective amount of at least one compound of the general formula (I) as an active ingredient, i.e. anti-inflammatory composition, in solid administration form (e.g. tablets, granules, powders, capsules, suppository), and liquid administration form (e.g. suspension, emulsion). In that case, as carrier, vehicle, solvent or dispersant, there may be used any of those which are known in the field of art. There may be exemplified water, starch, lactose, crystalline cellulose, magnesium stearate, hydroxypropyl cellulose, mannitol, carboxymethyl cellulose, glycol, ethanol, corn oil, peanut oil, castor oil, cacao butter, isocacao, polyoxyethylene stearate. […]

carrageenin edema = assay: Inhibitory effect on carrageenin edema (oral administration); format: in vivo, rat (Sprague-Dawley strain); details: for ED40: Rattus norvegicus, po, 3 h
Experimental: Inhibitory effect on carrageenin edema.
The experiment was carried out according to a method conforming to Van Arman, C. […] One hour after the administration of the test compound, 0.1 ml of 1% carrageenin solution in physiological saline was injected subcutaneously into the plantar sarface of the right hind paws of the rats. One hour after injection of carrageenin, the volume of the injected paws was measured hourly for 4 hours. Inhibition percent to carrageenin edema (%)* was calculated in comparison with the volume of paws of rats of a control group, to which only 0.3% CMC-Na solution was orally administered. [formula]

gastric mucosa [3] = assay: Effect on gastric mucosa (1) (oral administration); format: in vivo, mouse (ddY-strain); design: unit not given here; details: mice, 4 hours
Experimental: 4 Hours after the administration, the mouse was sacrificed with ether, and its stomach was removed. The stomach was treated with 5% formalin for 3 minutes, and gastric mucosa was observed under a stereoscopic microscope. When gastric lesion in the mucosa was found, the length of each lesion was measured. Degree of gastric damage (i.e. GD50)* was calculated on the basis of the length of the lesion of each mouse.
Remark *: GD50 : The value corresponding to the relative frequency of 50% on the normal probability paper plotted the length of gastric lesions of each mouse.

[4] = system: febrile body temperature (Brewer's yeast); assay: Antipyretic activity (oral administration); format: in vivo, rat (Sprague-Dawley strain); details: 30 mg/Kg
Experimental: Antipyretic activity (oral administration)
According to a method conforming to Winter, C. A. et al [The Journal of Pharmacology and Experimental Therapeutics 133, 117, (1961)], 20% Brewer's yeast suspension in physiological saline was injected subcutaneously to 5 male rats in each group (Sprague-Dawley strain) weighing 200 to 250 g in an amount of 1.0 ml per 100 g of body weight of the rat. After fasting for 18 hours, each test compound suspended in 1% gum arabic solution was administered orally to the rats in an amount of 1.0 ml per 100 g of body weight. Then, the rectal temperature of the rats was taken.

[5] = system: writhing syndrome due to acetic acid; assay: Analgesic activity, stretching method (oral administration); format: in vivo, mouse (ddY-strain)
Experimental: The experiment was carried out according to a method conforming to Koster R. et al [Federation Proceedings 18, 412, (1960)]. […] 30 Minutes after administration of the test compound, 0.6% acetic acid aqueous solution was injected intraperitoneally to the mice in an amount of 0.1 ml per 10 g of body weight of the mouse, and then frequency of writhing syndrome due to acetic acid was counted for 20 minutes. Inhibition percent to the writhing syndrome was calculated in comparison with frequency of writhing syndrome counted on mice of a control group, to which only 1% gum arabic solution was orally administered.

[6] = system: pain threshold of hind paws (Brewer's yeast); assay: Analgesic activity, Randall and Selitto method (oral administration); format: in vivo, rat (Sprague-Dawley strain); details: Rattus norvegicus; oral, Litchfield-Wilcoxon method, from increasing percent of pain threshold
Experimental: Randall and Selitto method
According to a method conforming to Randall, L. O. and Selitto, J. J. [Archives Internationales de Pharmacodynamie et de Therapie, 111, 409, (1957)], 0.1 ml of 10% Brewer's yeast suspension in physiological saline was injected subcutaneously into the plantar surface of the right hind paws of 5 male rats in each group (Sprague-Dawley strain) weighing 90 to 110 g. 2 Hours after administration of the yeast suspension, each test compound suspended in 0.3% CMC-Na solution was orally administered to the rats in an amount of 1.0 ml per 100 g of body weight of the rat. 30 Minutes, 60 minutes and 120 minutes after administration of the test compounds, threshold values of left and right hind paws of the rats were measured by an electric pressure device made by Daiwa Kinzoku Co., Ltd. (Japan). The change of threshold was obtained by comparing the pain threshold obtained in a group after the yeast injection with that obtained before the yeast injection, in the same group as above. Increasing percent of pain threshold of the test compound was calculated on the basis of the mean changes of threshold of the test group and of that of the control group. Rats of the control group were administered orally only 0.3% CMC-Na solution.
According to the Litchfield-Wilcoxon method [The Journal of Pharmacology and Experimental Therapeutics, 96, 96, (1949)], ED50 value was calculated as follows on the basis of the increasing percent of pain threshold;

adjuvant arthritis = assay: Inhibition to adjuvant arthritis (oral administration); format: in vivo, rat (Sprague-Dawley strain); details: for Increase in body weight / Weight of the organs: Adrenal glands / Weight of the organs: Spleen / Weight of the organs: Thymus: once a day for 7 days
Experimental: Inhibition to adjuvant arthritis.
According to a method conforming to Fujihira et al [Oyo Yakuri, 5, 169, (1971)], liquid paraffin suspension of Mycobacterium butiricum (hereinafter abbreviated as adjuvant) was injected subcutaneously to right hind paws of male rats (Spraque-Dawley strain) weighing 150 to 170 g in an amount of 0.3 mg/0.05 ml/rat. 14 Days after adjuvant injection, the rats, paws of which swelled to a similar degree, were selected and they were separated into groups. From the 15th day after adjuvant injection, each test compound suspended in 0.3% CMC-Na solution was orally administered once a day for 7 days to the 7 rats in each group in the dose shown in the following table 2.
The 16th, 19th and 22nd days after adjuvant injection the volume of left hand paws (i.e. paws not treated with the adjuvant) of the rats and their body weight were measured. Inhibition percent to the arthritis (edema) is calculated according to the same equation as that used in Experiment 1, and the value of ED40 is calculated on the basis of the inhibition percent. Then the rats were sacrificed with ether and the weight of their thymus, adrenal glands and spleen was determined.

[7] = 50 mg/Kg oral, 3 hour after administration
[8] = 100 mg/Kg oral, 3 hour after administration
[9] = 100 mg/Kg oral, 4 hour after administration

Row | Structure (SMILES) | Mean number of gastric lesion (gastric mucosa [1]; 25 mg/Kg oral) | Mean number of gastric lesion (gastric mucosa [1]; 50 mg/Kg oral) | Mean number of gastric lesion (gastric mucosa [1]; 100 mg/Kg oral) | Inhibition to carrageenin edema (carrageenin edema; [7]) [%] | Inhibition to carrageenin edema (carrageenin edema; [8]) [%] | Degree of gastric damage (GD50) (gastric mucosa [3]; 100 mg/Kg oral) | Degree of gastric damage (GD50) (gastric mucosa [3]; 200 mg/Kg oral) | Degree of gastric damage (GD50) (gastric mucosa [3]; 282 mg/Kg oral) | Inhibition to writhing syndrome ([5]; 100 mg/Kg oral) [%] | Inhibition to writhing syndrome ([5]; 200 mg/Kg oral) [%] | Inhibition to writhing syndrome ([5]; 400 mg/Kg oral) [%] | ED50 [6] [mg/kg] | Inhibition to adjuvant arthritis (adjuvant arthritis; 25 mg/Kg oral, 1st day) [%] | Inhibition to adjuvant arthritis (adjuvant arthritis; 25 mg/Kg oral, 4th day) [%] | Inhibition to adjuvant arthritis (adjuvant arthritis; 25 mg/Kg oral, 7th day) [%] | Increase in body weight (adjuvant arthritis; 25 mg/Kg oral) [g] | Weight of the organs: Adrenal glands (adjuvant arthritis; 25 mg/Kg oral) | Weight of the organs: Spleen (adjuvant arthritis; 25 mg/Kg oral) | Weight of the organs: Thymus (adjuvant arthritis; 25 mg/Kg oral) | Inhibition to adjuvant arthritis (adjuvant arthritis; 100 mg/Kg oral, 1st day) [%] | also measured
1 | CC(C(=O)C(=O)O)c1ccc(N2Cc3ccccc3C2=O)cc1 (centres unmarked) [2-Oxo-3-[4-(1-oxo-2-isoindolinyl)phenyl]butanoic acid] | 0 | 0 | 1.0 | 22.5 | 53.2 | – | – | – | – | – | – | – | – | – | – | – | – | – | – | – | Stability (in words) [2]: more stable
2 | CC(=O)Oc1ccccc1C(=O)O [Aspirin] | 1.0 | 5.4 | 15.0 | – | – | 2.0 | 16.1 | 18.6 | 0 | 43 | 70 | – | – | – | – | – | – | – | – | – | Mean number of gastric lesion (gastric mucosa [1]; 12.5 mg/Kg oral): 1.0; Degree of gastric damage (GD50) (gastric mucosa [3]; 400 mg/Kg oral): 31.2; Drop of febrile body temperature [4]: 1 °C
3 | CC(C)Cc1ccc(C(C)C(=O)O)cc1 (centres unmarked) [Ibuprofen] | – | – | – | 19.2 ± 22.0 | 42.2 ± 0.3 | – | – | – | – | – | – | 130 | 25.6 | 15.7 | 32.0 | 26.7 | 13.7 ± 0.9 mg/100g of body weight | 420.5 ± 34.9 mg/100g of body weight | 143.3 ± 8.9 mg/100g of body weight | 28.1 | Inhibition to adjuvant arthritis (adjuvant arthritis; 100 mg/Kg oral, 4th day): 37.3%; Inhibition to adjuvant arthritis (adjuvant arthritis; 100 mg/Kg oral, 7th day): 53.4%; Increase in body weight (adjuvant arthritis; 100 mg/Kg oral): 16.0 g; Weight of the organs: Adrenal glands (adjuvant arthritis; 100 mg/Kg oral): 15.3 ± 1.7 mg/100g of body weight; Weight of the organs: Spleen (adjuvant arthritis; 100 mg/Kg oral): 438.0 ± 40.0 mg/100g of body weight; Weight of the organs: Thymus (adjuvant arthritis; 100 mg/Kg oral): 127.8 ± 20.7 mg/100g of body weight; Inhibition to carrageenin edema (carrageenin edema; 50 mg/Kg oral, 4 hour after administration): 23.5 ± 14.2%; Inhibition to carrageenin edema (carrageenin edema; [9]): 33.7 ± 3.1%; Inhibition to carrageenin edema (carrageenin edema; 200 mg/Kg oral, 3 hour after administration): 43.9 ± 1.0%; Inhibition to carrageenin edema (carrageenin edema; 200 mg/Kg oral, 4 hour after administration): 37.1 ± 4.7%; ED40 (carrageenin edema): 90 mg/kg
4 | CCCCC1C(=O)N(c2ccccc2)N(c2ccccc2)C1=O [Phenylbutazone] | – | 0.2 | 4.2 | – | 54.3 ± 2.0 | 5.2 | 10.0 | 13.0 | 10 | 15 | 61 | 250 | 32.2 | 28.8 | 38.3 | 30.9 | 13.2 ± 1.9 mg/100g of body weight | 441.7 ± 29.9 mg/100g of body weight | 141.6 ± 12.5 mg/100g of body weight | 34.3 | Mean number of gastric lesion (gastric mucosa [1]; 200 mg/Kg oral): 9.6; Inhibition to adjuvant arthritis (adjuvant arthritis; 100 mg/Kg oral, 4th day): 37.9%; Inhibition to adjuvant arthritis (adjuvant arthritis; 100 mg/Kg oral, 7th day): 51.6%; Increase in body weight (adjuvant arthritis; 100 mg/Kg oral): 31.4 g; Weight of the organs: Adrenal glands (adjuvant arthritis; 100 mg/Kg oral): 12.0 ± 1.0 mg/100g of body weight; Weight of the organs: Spleen (adjuvant arthritis; 100 mg/Kg oral): 444.0 ± 39.6 mg/100g of body weight; Weight of the organs: Thymus (adjuvant arthritis; 100 mg/Kg oral): 146.2 ± 14.8 mg/100g of body weight; Inhibition to carrageenin edema (carrageenin edema; 12.5 mg/Kg oral, 3 hour after administration): 12.0 ± 5.5%; Inhibition to carrageenin edema (carrageenin edema; 12.5 mg/Kg oral, 4 hour after administration): 19.9 ± 3.7%; Inhibition to carrageenin edema (carrageenin edema; 25 mg/Kg oral, 3 hour after administration): 9.6 ± 8.3%; Inhibition to carrageenin edema (carrageenin edema; 25 mg/Kg oral, 4 hour after administration): 14.3 ± 4.7%; Inhibition to carrageenin edema (carrageenin edema; [9]): 50.7 ± 6.0%; ED40 (carrageenin edema): 62 mg/kg

— patent publication US4166125A, “2-Oxo-phenylbutanoic acid derivatives” (Grelan Pharmaceutical Co., Ltd., priority 1977, dated 1979)
